Experimental data: paper PMC7933434, “Entropy-driven binding of gut bacterial β-glucuronidase inhibitors ameliorates irinotecan-induced toxicity” (Communications Biology, 2021)
pIC50: −log10 of the molar value. Several values for one entry are separate records, joined by “and”; a condition that tells them apart may be missing. Identical values can stand only once. Entries after “also recorded” stand apart in the source; their conditions may differ.

Key:
BALB/c mice [1] = assay: Colon histology (hematoxylin and eosin) after oral gavage; type: in vivo, mouse; settings: female BALB/c mice; oral gavage for 5 days; 3 at 37.5 mg per kg body weight, ASN03273363 at 65 mg
BALB/c mice [2] = assay: In vivo diarrhea test (CPT-11); set-up: species or system mouse; key to Diarrhea Score: 0: Normal stool; 1: Slight perianal staining of the coat; 2: Moderate perianal staining of the coat; 3: Watery mucosal-infused stool with severe perianal staining of the coat; Death
patients = patients taking irinotecan; cited from earlier work
HsGUS (human GUS) = target: T1, HsGUS (human GUS) (Homo sapiens, UniProt P08236); assay: GUS inhibition assay, hydrolysis of 4-methylumbelliferyl-β-glucuronide, HsGUS; type: biochemical; settings: HsGUS; at 1 mM; read-out: percentage of inhibition
T1 construct: HsGUS was prepared as described[37]; made in house
T1 sequence (P08236 23-651): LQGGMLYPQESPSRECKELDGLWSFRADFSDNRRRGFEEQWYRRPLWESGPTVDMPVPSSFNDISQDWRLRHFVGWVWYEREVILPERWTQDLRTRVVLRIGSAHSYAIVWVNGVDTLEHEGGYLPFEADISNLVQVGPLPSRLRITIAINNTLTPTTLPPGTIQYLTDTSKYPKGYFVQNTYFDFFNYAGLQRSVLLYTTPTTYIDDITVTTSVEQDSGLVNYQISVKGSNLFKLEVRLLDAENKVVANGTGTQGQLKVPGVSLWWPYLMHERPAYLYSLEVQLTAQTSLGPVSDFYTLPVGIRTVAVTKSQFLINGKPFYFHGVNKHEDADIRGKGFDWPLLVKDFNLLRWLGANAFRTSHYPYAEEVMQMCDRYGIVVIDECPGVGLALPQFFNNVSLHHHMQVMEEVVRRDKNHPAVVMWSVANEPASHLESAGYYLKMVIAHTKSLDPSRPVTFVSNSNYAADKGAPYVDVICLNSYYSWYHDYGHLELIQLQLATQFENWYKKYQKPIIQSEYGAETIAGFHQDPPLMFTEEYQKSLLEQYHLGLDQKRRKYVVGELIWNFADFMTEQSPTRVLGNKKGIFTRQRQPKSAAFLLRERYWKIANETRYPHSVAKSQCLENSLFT

[3] = target: EcGUS (Escherichia coli GUS) (Escherichia coli, UniProt P05804); assay: biochemical
Sequence of EcGUS (Escherichia coli GUS) (P05804 whole entry): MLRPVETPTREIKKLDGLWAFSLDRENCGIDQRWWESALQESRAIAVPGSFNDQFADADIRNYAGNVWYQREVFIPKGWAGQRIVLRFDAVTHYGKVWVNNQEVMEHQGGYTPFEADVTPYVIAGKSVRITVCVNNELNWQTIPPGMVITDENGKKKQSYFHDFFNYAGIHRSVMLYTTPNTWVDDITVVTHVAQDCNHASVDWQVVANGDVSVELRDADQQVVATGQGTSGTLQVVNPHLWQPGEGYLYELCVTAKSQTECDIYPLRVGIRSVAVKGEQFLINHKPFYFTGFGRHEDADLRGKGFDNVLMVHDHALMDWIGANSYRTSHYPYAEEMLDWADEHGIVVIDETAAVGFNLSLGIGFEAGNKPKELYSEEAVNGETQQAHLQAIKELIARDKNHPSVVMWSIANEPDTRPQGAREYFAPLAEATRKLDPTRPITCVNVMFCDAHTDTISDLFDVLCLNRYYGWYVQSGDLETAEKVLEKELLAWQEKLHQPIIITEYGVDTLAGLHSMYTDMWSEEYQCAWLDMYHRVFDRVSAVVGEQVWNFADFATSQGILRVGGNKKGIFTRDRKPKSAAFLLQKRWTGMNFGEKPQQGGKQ

[4] = Day 6, individual mice (Box 1-8)
[5] = Day 7, individual mice (Box 1-8)
[6] = Day 8, individual mice (Box 1-8)
[7] = Day 9, individual mice (Box 1-8)
[8] = Day 10, individual mice (Box 1-8)
[9] = Day 11, individual mice (Box 1-8)
[10] = Day 12, individual mice (Box 1-8)

Row | Structure (SMILES) | Diarrhea Score, mean (BALB/c mice [2]; Day 6, group mean) | Diarrhea Score (BALB/c mice [2]; [4]) | Diarrhea Score, mean (BALB/c mice [2]; Day 7, group mean) | Diarrhea Score (BALB/c mice [2]; [5]) | Diarrhea Score, mean (BALB/c mice [2]; Day 8, group mean) | Diarrhea Score (BALB/c mice [2]; [6]) | Diarrhea Score, mean (BALB/c mice [2]; Day 9, group mean) | Diarrhea Score (BALB/c mice [2]; [7]) | Diarrhea Score, mean (BALB/c mice [2]; Day 10, group mean) | Diarrhea Score (BALB/c mice [2]; [8]) | Diarrhea Score, mean (BALB/c mice [2]; Day 11, group mean) | Diarrhea Score (BALB/c mice [2]; [9]) | Diarrhea Score, mean (BALB/c mice [2]; Day 12, group mean) | Diarrhea Score (BALB/c mice [2]; [10]) | inhibition at 1000 µM (HsGUS (human GUS)) | pIC50 [3] | also measured
1 | CCOc1ccc(NC(=S)N(CCO)Cc2cc3cc(C)cc(C)c3[nH]c2=O)cc1 [ASN03273363, reference compound] | – | – | – | – | – | – | – | – | – | – | – | – | – | – | – | – | health of the epithelial layer and intestinal glandular structure (hematoxylin and eosin staining) (BALB/c mice [1]): neither compound affected the health of the epithelial layer or the intestinal glandular structure
2 | CCc1c2c(nc3ccc(OC(=O)N4CCC(N5CCCCC5)CC4)cc13)-c1cc3c(c(=O)n1C2)COC(=O)[C@]3(O)CC [CPT-11, Irinotecan] | 0.0 | 0 | 0.0 | 0 | 0.25 | 0 and 2 | 0.429 | 0 and D and 3 | 1.6 | 0 and D and 3 and 2 | 2.3 | 1 and D and 3 and 2 | 2.1 | 3 and 0 and D | – | – | diarrhea (BALB/c mice [2]; BALB/c mice, CPT-11 only, 30 mg per kg daily, 10 days): developed diarrhea on day 7, until they reached a peak on day 11; also recorded: severe diarrhea from days 7–11; Mean ± SEM of Diarrhea score (BALB/c mice [2]; day 9, Welch's unpaired t-test table): 0.0 ± 0.0 N=7; Mean ± SEM of Diarrhea score (BALB/c mice [2]; day 10, Welch's unpaired t-test table): 0.0 ± 0.0 N=7; Mean ± SEM of Diarrhea score (BALB/c mice [2]; day 11, Welch's unpaired t-test table): 0.2857 ± 0.1844 N=7; Mean ± SEM of Diarrhea score (BALB/c mice [2]; day 12, Welch's unpaired t-test table): 0.3333 ± 0.2108 N=6; patients at high risk of death owing to neutropenia (patients): ~ 3.5%; patients becoming dehydrated (patients): ~ 10%; patients suffering from severe delayed diarrhea (patients): 87%
3 | CCC[C@@H]1NC[C@@H](O)[C@H](O)[C@H]1CO [Compound 11] | – | – | – | – | – | – | – | – | – | – | – | – | – | – | 4.5% | 3.56 | –
4 | CCCCCC[C@@H]1NC[C@@H](O)[C@H](O)[C@H]1CO [Compound 12] | – | – | – | – | – | – | – | – | – | – | – | – | – | – | 0.6% | 4.60 | –
5 | CCCCCCCCC[C@@H]1NC[C@@H](O)[C@H](O)[C@H]1CO [Compound 13] | – | – | – | – | – | – | – | – | – | – | – | – | – | – | -0.5% | 5.44 | –
6 | CCCCCC[C@@H]1NC[C@@H](O)[C@H](O)[C@H]1C(=O)O [Inhibior 3] | 0.0 | 0 | 0.0 | 0 | 0.0 | 0 | 0.0 | 0 | 0.0 | 0 | 0.0 | 0 | 0.0 | 0 | – | – | –
